The source of these data is PMC5321741, “Arylmethylamino steroids as antiparasitic agents” (Nature Communications, 2017).

For data set [1], the system named is P. berghei asexual stages. The experiment in a line: ex vivo drug assay (luciferase), asexual stages. Format: cell-based. Particulars: Plasmodium berghei, 24 h, read-out: IC50 against P. berghei ex vivo. On the procedure: Plates frozen at −80 °C were thawed at 37 °C. The cells were lysed at room temperature in 10 μl 1x luciferin lysis buffer (Luciferase Cell Culture Lysis 5 × reagent, Promega), and 100 μl luciferase assay substrate was added to each well (Luciferase Assay System, Promega). Luciferase activity was measured on a luminescence plate reader (Mithras LB940 luminometer, Berthold Technologies). The mean of the luciferase activity was calculated for each technical triplicate and normalized as follows: (Lucx−LucRBC)/(Lucsolvent−LucRBC) with Lucx and Lucsolvent=mean luciferase activity for parasites incubated with compound x and with solvent (DMSO for 1o and PBS for MB), respectively, and LucRBC=mean luciferase activity of non-infected red blood cells (background). IC50 values were calculated using Prism (GraphPad, log(inhibitor) versus normalized response—variable slope) in three independent experiments for the P. falciparum gametocyte assay and five for the P. berghei ex vivo drug assay.
The animal experiments described in this part were performed at the Institut de Biologie Moléculaire et Cellulaire (Strasbourg, France), using facilities and protocols adhering to national regulations of laboratory animal welfare in France. […] Parasitaemia was monitored via FACS analysis (FACSCalibur, BD Bioscience). […]

The subject of data set [2] is P. berghei transmission from mice to Anopheles gambiae mosquitoes. The experiment in a line: in vivo transmission-blocking assay. On the set-up: species or system Plasmodium berghei. Particulars: 100 mg kg−1 i.p. daily, three doses; 4 days post passage. As to the method: We further tested the activity of compound 1o on parasite transmission from mice to Anopheles gambiae mosquitoes. For this, P. berghei-infected mice received a daily injection of compound 1o for 3 days starting 24 h post passage and were exposed to mosquito bites 24 h after each injection. Tween 80 (Tw80) and methylene blue (MB) served as negative and positive controls, respectively. As with MB, compound 1o limited parasite multiplication in mice, albeit to a lesser extent (Fig. 3a). […]
Figure 3 Effect of compound 1o on P. berghei multiplication in mice and on parasite transmission to mosquitoes. […] Parasitemia was monitored daily and the mean± s.d. of three independent experiments are plotted. […] (b) Prevalence (percentage of infected mosquitoes) and (c) infection intensity (mean number of parasites per infected midgut) were determined 7 days post infectious blood feeding. […] Significance for differences between treatments was calculated using generalized linear models with treatment, time, and repeats as variables, ***P value <0.001 (a–c). n, number of mosquitoes. […] Survival of treated gametocytes was calculated for each concentration relative to parasites exposed to vehicle. […]
Parasitaemia was determined daily via FACS analysis (FACSCalibur, BD Bioscience). […]

In the next data set the test system is P. falciparum NF54. Description: IC50 speed assay. It counts as cell-based, Plasmodium falciparum. Particulars: for IC50: Plasmodium falciparum, mean±s.d., three biological replicates. On the procedure: To assess the rapidity of growth inhibition induced by the steroid compounds, the so-called IC50 speed assay[16] was conducted for compound 1o on P. falciparum NF54 (Fig. 2a,b).

Data set [3] can be described thus: spectrophotometric titration by Fe(III). It counts as physicochemical. Particulars: 0.2 M HEPES pH 7.5 + DMSO (1:1 v/v), 25.0 °C. As to the method:
Supplementary Figure 17. (left) Spectrophotometric titration of the substrates 1o and 2o by Cu(II) and Fe(III) and (right) electronic spectra of the free substrates and of corresponding metal complexes. Solvent: 0.2 M aqueous sodium HEPES buffer pH 7.5 + DMSO (1:1 v/v); T = 25.0 […]
were prepared in CH3CN (5 mM). Haematin and the substrates were mixed together in […]
The absorption spectrophotometric […]
each addition of the substrate. […]
spectrophotometric data with the Specfit program. The uncertainties on the log K values are given as 3σ with σ = standard deviation. Origin 7.0 was used to process the analytical

Read-outs that look alike come from different tables or passages of the source.

The IC50 is the concentration needed to halve the response being measured. For the compound `COc1ccc2c(c1)CCC1C2CC[C@@]2(C)C1CC[C@H]2NCc1cc2ccccc2cc1O` (stereo partly shown) [1o], the 50% inhibitory concentration (IC50) was 3.1 ± 2.4 nM in data set [1]; 2.9 ± 0.2 nM in the data set on P. falciparum NF54 (NF54, read-out: IC50 24 h, 24 h compound incubation); 3.4 ± 0.2 nM in the data set on P. falciparum NF54 (NF54, 48 h compound incubation, read-out: IC50 48 h); 2.7 ± 0.4 nM in the data set with P. falciparum NF54 (NF54, 72 h compound incubation, read-out: IC50 72 h). The “parasite transmission to mosquitoes” value in data set [2] was “fully block parasite transmission to mosquitoes”. The “speed of action (IC50 shift across 24, 48, 72 h)” value in the data set on P. falciparum NF54 is listed as “no significant IC50 shifts”.
Consider `COc1ccc2c(c1)CCC1C2CC[C@@]2(C)C1CC[C@@H]2NCc1cc2ccccc2cc1O` (stereo partly shown) [2o], for which the “log K2o.Fe” value in data set [3] turned out to be 4.3.
